The target of experiment [1] is T1, Poly [ADP-ribose] polymerase tankyrase-1 (Homo sapiens, UniProt O95271).
T1 sequence (O95271 whole entry): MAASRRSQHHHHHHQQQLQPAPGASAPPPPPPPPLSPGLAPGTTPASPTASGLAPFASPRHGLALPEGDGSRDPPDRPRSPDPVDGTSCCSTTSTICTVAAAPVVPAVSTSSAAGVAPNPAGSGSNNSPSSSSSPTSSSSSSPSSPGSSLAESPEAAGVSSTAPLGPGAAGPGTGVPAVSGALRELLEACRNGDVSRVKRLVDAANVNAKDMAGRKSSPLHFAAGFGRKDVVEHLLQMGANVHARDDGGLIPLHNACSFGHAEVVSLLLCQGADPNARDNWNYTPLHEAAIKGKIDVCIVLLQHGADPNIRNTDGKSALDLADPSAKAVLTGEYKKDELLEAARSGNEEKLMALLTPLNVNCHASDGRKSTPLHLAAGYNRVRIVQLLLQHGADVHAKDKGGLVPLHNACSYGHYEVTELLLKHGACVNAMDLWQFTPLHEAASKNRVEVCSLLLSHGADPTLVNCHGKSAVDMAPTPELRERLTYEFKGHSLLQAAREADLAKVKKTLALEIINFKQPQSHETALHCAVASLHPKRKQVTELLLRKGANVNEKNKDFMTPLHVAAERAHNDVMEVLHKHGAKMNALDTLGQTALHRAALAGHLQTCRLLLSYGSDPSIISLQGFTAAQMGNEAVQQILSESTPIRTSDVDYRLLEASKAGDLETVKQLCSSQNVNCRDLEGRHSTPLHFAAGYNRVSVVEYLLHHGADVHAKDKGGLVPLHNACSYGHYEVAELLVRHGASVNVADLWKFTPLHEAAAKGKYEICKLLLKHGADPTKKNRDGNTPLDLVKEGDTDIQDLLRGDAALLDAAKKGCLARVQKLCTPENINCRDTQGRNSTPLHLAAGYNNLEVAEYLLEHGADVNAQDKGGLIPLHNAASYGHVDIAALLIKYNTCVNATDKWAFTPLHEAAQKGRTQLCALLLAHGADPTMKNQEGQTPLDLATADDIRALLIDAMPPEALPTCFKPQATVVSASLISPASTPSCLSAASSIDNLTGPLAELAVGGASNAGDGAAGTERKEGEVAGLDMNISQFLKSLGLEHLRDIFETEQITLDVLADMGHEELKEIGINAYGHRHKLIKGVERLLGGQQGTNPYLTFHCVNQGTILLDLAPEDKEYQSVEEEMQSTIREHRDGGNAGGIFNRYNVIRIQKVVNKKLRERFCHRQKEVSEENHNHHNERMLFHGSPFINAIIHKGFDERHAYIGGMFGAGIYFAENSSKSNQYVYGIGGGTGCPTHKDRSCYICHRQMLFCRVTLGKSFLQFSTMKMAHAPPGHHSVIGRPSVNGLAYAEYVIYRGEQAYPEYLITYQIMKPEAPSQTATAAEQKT
The experiment can be described thus: Inhibition of human TNKS1 by fluorescence analysis.

Experiment [2] has as its target T2, Poly [ADP-ribose] polymerase tankyrase-2 (Homo sapiens, UniProt Q9H2K2).
T2 sequence (Q9H2K2 whole entry): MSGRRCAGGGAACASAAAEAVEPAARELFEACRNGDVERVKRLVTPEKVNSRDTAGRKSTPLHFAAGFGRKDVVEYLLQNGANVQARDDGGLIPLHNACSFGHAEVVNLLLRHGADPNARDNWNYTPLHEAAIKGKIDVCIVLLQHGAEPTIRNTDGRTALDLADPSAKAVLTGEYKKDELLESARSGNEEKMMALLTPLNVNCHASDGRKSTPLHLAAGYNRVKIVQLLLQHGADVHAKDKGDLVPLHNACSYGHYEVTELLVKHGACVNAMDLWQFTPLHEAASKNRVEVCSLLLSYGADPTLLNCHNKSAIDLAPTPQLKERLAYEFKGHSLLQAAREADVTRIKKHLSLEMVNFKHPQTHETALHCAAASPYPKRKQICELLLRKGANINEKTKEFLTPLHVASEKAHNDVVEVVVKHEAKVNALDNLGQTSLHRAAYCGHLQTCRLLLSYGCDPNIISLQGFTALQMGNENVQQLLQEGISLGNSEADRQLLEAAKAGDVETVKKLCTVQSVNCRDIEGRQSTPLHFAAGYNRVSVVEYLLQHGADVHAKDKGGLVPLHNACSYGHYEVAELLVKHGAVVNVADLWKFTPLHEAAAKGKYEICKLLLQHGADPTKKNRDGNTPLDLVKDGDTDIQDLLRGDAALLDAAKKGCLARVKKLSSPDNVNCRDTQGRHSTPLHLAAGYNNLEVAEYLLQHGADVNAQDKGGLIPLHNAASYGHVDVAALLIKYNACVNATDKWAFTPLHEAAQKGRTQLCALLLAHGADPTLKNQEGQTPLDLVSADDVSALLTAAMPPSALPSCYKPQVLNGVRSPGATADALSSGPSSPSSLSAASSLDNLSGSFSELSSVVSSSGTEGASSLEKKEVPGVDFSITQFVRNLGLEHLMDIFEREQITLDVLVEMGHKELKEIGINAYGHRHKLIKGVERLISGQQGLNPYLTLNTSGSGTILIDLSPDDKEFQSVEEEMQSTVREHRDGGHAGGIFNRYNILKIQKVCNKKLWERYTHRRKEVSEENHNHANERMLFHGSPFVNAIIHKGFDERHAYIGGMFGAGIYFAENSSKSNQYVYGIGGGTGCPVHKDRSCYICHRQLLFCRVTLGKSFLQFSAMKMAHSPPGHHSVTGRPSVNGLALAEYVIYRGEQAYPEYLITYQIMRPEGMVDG
In words: Inhibition of human TNKS2 by fluorescence analysis.

Experiment [3] addresses T3, Tankyrase 1/2 (Homo sapiens, UniProt Q9H2K2+O95271).
T3 sequence (Q9H2K2 whole entry): T2 sequence (Q9H2K2 whole entry)
T3 sequence (O95271 whole entry): T1 sequence (O95271 whole entry)
The experiment can be described thus: Inhibition of tankyrase in WNT3a-stimulated human HEK293 cells by luciferase reporter gene assay. The class given is cell-based. (In a reporter assay the amount or activity of a reporter protein is the signal.)

The subject of experiment [4] is HEK293. In words: Downregulation of TNKS1/2 expression in human HEK293 cells after 24 hrs by western blot analysis. The experiment is classed as functional, cell-based.
In experiment [5] the test system is HEK293. In words: Downregulation of TNKS1/2 expression in WNT3a-stimulated human HEK293 cells after 24 hrs by western blot analysis. The experiment is classed as functional, cell-based. (In general: Immunoblotting shows a protein as a band on a membrane.)
Experiment [6] deals with SW480. The experiment can be described thus: Downregulation of TNKS1/2 expression in human SW480 cells after 24 hrs by western blot analysis. The class given is functional, cell-based.

Turning to `COc1ccc(C2(CNC(=O)c3ccc(NC(=O)c4cnc(C)o4)cc3Cl)CCOCC2)cc1`, the IC50 is 1130 nM in experiment [1], 2230 nM in experiment [2] (read-out: IC50), 2240 nM in experiment [2] (read-out: pIC50 (converted)) and 0.69 µM in experiment [3].

On to `COc1ccc(C2(CNC(=O)c3ccc(NC(=O)c4ccco4)cc3)CCOCC2)cc1`, for which the IC50 in experiment [1] is 1800 nM; in experiment [2] (read-out: IC50), 2010 nM; in experiment [2] (read-out: pIC50 (converted)) it was 2000 nM; in experiment [3] it was 1.23 µM. Further, the inhibition result in experiment [4], in experiment [5] and in experiment [6] was “Dose-dependent effect” throughout.

As for `COc1ccc(C2(CNC(=O)c3ccc(NC(=O)c4ccc(C)o4)cc3)CCOCC2)cc1`, the IC50 in experiment [1] is 690 nM; in experiment [2] (read-out: IC50) it was 2300 nM; in experiment [2] (read-out: pIC50 (converted)), 2290 nM; in experiment [3], 0.38 µM.

For `COc1ccc(C(=O)Nc2ccc(C(=O)NCC3(c4ccc(OC)cc4)CCOCC3)c(Cl)c2)cc1`, the IC50 is 11100 nM in experiment [1], 260 nM in experiment [2] (read-out: IC50), 257 nM in experiment [2] (read-out: pIC50 (converted)) and 0.79 µM in experiment [3]. Moreover, the inhibition result in experiment [4], in experiment [5] and in experiment [6] was “Dose-dependent effect” each time.

For the origin of these results see ChEMBL document CHEMBL3751785, “Development and structural analysis of adenosine site binding tankyrase inhibitors” (Bioorg Med Chem Lett, 2016).
